According to patent publication US20150315218A1, “SALTS OF PRODRUGS OF PIPERAZINE AND SUBSTITUTED PIPERIDINE ANTIVIRAL AGENTS” (Bristol-Myers Squibb Company, priority 2004, published 2015):

How the values were obtained:
[1] = IV and PO pharmacokinetic studies of prodrug salts (Iab, Ibb, Icb) in the dog, with historical parent data; assay type: in vivo, beagle dogs; settings: for Tmax: read-out: Tmax (hr), PO; for concentration at 24 hr: read-out: C-24 hr (μM), PO; for Cmax: read-out: Cmax (μM), PO
Experimental: The IV and PO studies of Iab were conducted in a crossover fashion in three male beagle dogs (11±1.1 kg, Marshall Farms USA Inc., North Rose, N.Y.). There was a two-week washout period between the IV and PO studies.
In the IV study, Iab was infused via the cephalic vein at 1.2 mg/kg (free acid, or 0.95 mg/kg of IVa equivalent) over 5 min at a constant rate of 0.1 mL/kg/min. The concentration of the dosing solution was 2.4 mg/mL, and the dosing volume was 0.5 mL/kg. Serial blood samples were collected from the femoral artery before dosing and at 5, 10, 15, 30, 45 min, 1, 2, 4, 6, 8 and 24 hr after dosing.
In the PO study, the dogs were fasted overnight before dosing. Iab was administered by oral gavage at 6.6 mg/kg (free acid, or 5.2 mg/kg of IVa equivalent). The concentration of the dosing solution was 13.2 mg/mL, and the dosing volume was 0.5 mL/kg. Serial blood samples were collected before dosing and at 15, 30, 45 min, 1, 2, 4, 6, 8 and 24 hr after dosing.
The IV and PO studies of Ibb were conducted in male beagle dogs (10±0.78 kg, Marshall Farms USA Inc., North Rose, N.Y.). Three dogs were used in each study. Of the three dogs, two same dogs were used for both IV and PO studies. There was a two-week washout period between the IV and PO studies.
The concentration of the dosing solution was 2.6 mg/mL, and the dosing volume was 0.5 mL/kg. Serial blood samples were collected from the femoral artery before dosing and at 5, 10, 15, 30, 45 min, 1, 2, 4, 6, 8 and 24 hr after dosing.
In the PO study, the dogs were fasted overnight before dosing. […] The concentration of the dosing solution was 7.0 mg/mL, and the dosing volume was 1 mL/kg. Serial blood samples were collected before dosing and at 15, 30, 45 min, 1, 2, 4, 6, 8 and 24 hr after dosing.
The IV and PO studies of Icb were conducted in a crossover fashion in three male beagle dogs (12±2.8 kg, Marshall Farms USA Inc., North Rose, N.Y.). There was a two-week washout period between the IV and PO studies.
In the IV study, Icb was infused via the cephalic vein at 1.3 mg/kg (free acid, or 1.0 mg/kg of IVe equivalent) over 5 min at a constant rate of 0.1 mL/kg/min. The concentration of the dosing solution was 2.6 mg/mL, and the dosing volume was 0.5 mL/kg. Serial blood samples were collected from the femoral artery before dosing and at 5, 10, 15, 30, 45 min, 1, 2, 4, 6, 8 and 24 hr after dosing.
In the PO study, the dogs were fasted overnight before dosing. […] The concentration of the dosing solution was 12 mg/mL, and the dosing volume was 0.5 mL/kg. Serial blood samples were collected before dosing and at 15, 30, 45 min, 1, 2, 4, 6, 8 and 24 hr after dosing.

[2] = IV and PO pharmacokinetic studies of prodrug salts (Iab, Ibb, Icb) in the monkey, with historical parent data; assay type: in vivo, cynomolgus monkeys; settings: monkey; for Tmax: read-out: Tmax (hr), PO
Experimental: The IV and PO studies of Iab were conducted in a crossover fashion in three male cynomolgus monkeys (11±1.2 kg, Charles River Biomedical Research Foundation, Houston, Tex.). There was a two-week washout period between the IV and PO studies.
In the IV study, Iab was infused via the femoral vein at 1.3 mg/kg (free acid, or 1.1 mg/kg of IVa equivalent) over 5 min at a constant rate of 0.1 mL/kg/min. The concentration of the dosing solution was 2.6 mg/mL, and the dosing volume was 0.5 mL/kg. Serial blood samples were collected from the femoral artery before dosing and at 5, 10, 15, 30, 45 min, 1, 2, 4, 6, 8 and 24 hr after dosing.
In the PO study, the monkeys were fasted overnight before dosing. Iab was administered by oral gavage at 7.1 mg/kg (free acid, or 5.6 mg/kg of IVa equivalent). The concentration of the dosing solution was 14.2 mg/mL, and the dosing volume was 0.5 mL/kg. Serial blood samples were collected before dosing and at 15, 30, 45 min, 1, 2, 4, 6, 8 and 24 hr after dosing.
The IV and PO studies of Ibb were conducted in a crossover fashion in three male cynomolgus monkeys (9.9±2.4 kg, Charles River Biomedical Research Foundation, Houston, Tex.). There was a two-week washout period between the IV and PO studies.
The concentration of the dosing solution was 2.7 mg/mL, and the dosing volume was 0.5 mL/kg. Serial blood samples were collected from the femoral artery before dosing and at 5, 10, 15, 30, 45 min, 1, 2, 4, 6, 8 and 24 hr after dosing.
In the PO study, the monkeys were fasted overnight before dosing. […] The concentration of the dosing solution was 5.8 mg/mL, and the dosing volume was 1 mL/kg. Serial blood samples were collected before dosing and at 15, 30, 45 min, 1, 2, 4, 6, 8 and 24 hr after dosing.
The IV and PO studies of Icb were conducted in a crossover fashion in three male cynomolgus monkeys (10±1.6 kg, Charles River Biomedical Research Foundation, Houston, Tex.). There was a two-week washout period between the IV and PO studies.
The concentration of the dosing solution was 2.8 mg/mL, and the dosing volume was 0.5 mL/kg. Serial blood samples were collected from the femoral artery before dosing and at 5, 10, 15, 30, 45 min, 1, 2, 4, 6, 8 and 24 hr after dosing.
In the PO study, the monkeys were fasted overnight before dosing. […] The concentration of the dosing solution was 9.8 mg/mL, and the dosing volume was 0.5 mL/kg. Serial blood samples were collected before dosing and at 15, 30, 45 min, 1, 2, 4, 6, 8 and 24 hr after dosing.

[3] = male, beagle, plasma, 6.6 mg/kg, after oral prodrug, analyte = label, ND = not detected
[4] = oral prodrug vs historical parent
[5] = plasma, historical parent, PO 5 mg/kg

## COc1ncc(OC)c2c(C(=O)C(=O)N3CCN(C(=O)c4ccccc4)CC3)c[nH]c12 [IVa, N-(benzoyl)-N′-[(4,7-dimethoxy-6-azaindol-3-yl)-oxoacetyl]piperazine]
[1]
  IV AUC Ratio of parent (formed from prodrug vs historical parent study): 0.80
[1]; beagle, in vivo, po, 5 mg/kg
  Bioavailability (%): 57%
[1]; beagle, plasma, historical parent, PO 5 mg/kg
  Tmax: 2.9 h
[1]; male, beagle, plasma, 6.6 mg/kg, after oral prodrug, analyte = label, ND = not detected, read-out: AUCtot (μM · hr), PO
  AUC: 83 ± 16 µM·h
[1]; [3]
  concentration at 24 hr: 0.26 ± 0.12 µM
  Cmax: 14 ± 1.3 µM
[1]; male, beagle, plasma, 6.6 mg/kg, parent after oral prodrug, read-out: t1/2 (hr), PO (converted)
  half-life: 4.1 ± 0.52 h
[1]; male, beagle, plasma, after IV prodrug (~1 mg/kg parent equivalent), analyte = label, read-out: AUCtot (μM · hr), IV
  AUC: 13 ± 2.2 µM·h
[1]; male, beagle, plasma, after IV prodrug, analyte = label, read-out: t1/2 (hr), IV (converted)
  half-life: 5.2 ± 1 h
[1]; male, beagle, plasma, oral prodrug, read-out: Bioavailability (%) of parent from prodrug
  bioavailability: 94%
[1]; male, beagle, plasma, parent after oral prodrug (~5 mg/kg parent equivalent)
  Tmax: 0.25 h
[1]; [4]
  PO AUC Ratio of parent: 1.7
[1]; plasma, historical parent, IV 1 mg/kg, read-out: AUCtot (μM · hr), IV
  AUC: 17 ± 3.5 µM·h
[1]; plasma, historical parent, IV 1 mg/kg, read-out: CLtot (mL/min/kg), IV
  clearance: 2.4 ± 0.43 mL/min/kg
[1]; plasma, historical parent, IV 1 mg/kg, read-out: MRT (hr), IV
  MRT: 3.3 ± 0.71 h
[1]; plasma, historical parent, IV 1 mg/kg, read-out: Vdss (L/kg), IV
  Vd: 0.45 ± 0.083 L/kg
[1]; plasma, historical parent, IV 1 mg/kg, read-out: t1/2 (hr), IV (converted)
  half-life: 2.6 ± 1.2 h
[1]; plasma, historical parent, PO 5 mg/kg, read-out: AUCtot (μM · hr), PO
  AUC: 47 ± 7.2 µM·h
[1]; [5]
  concentration at 24 hr: 0.15 ± 0.093 µM
  Cmax: 6.5 ± 1.2 µM
[1]; plasma, historical parent, PO 5 mg/kg, read-out: t1/2 (hr), PO (converted)
  half-life: 3.8 ± 0.81 h
[2]; cynomolgus monkey, plasma, historical parent, IV 1 mg/kg, read-out: AUCtot (μM · hr), IV
  AUC: 9.2 ± 0.53 µM·h
[2]; cynomolgus monkey, plasma, historical parent, IV 1 mg/kg, read-out: CLtot (mL/min/kg), IV
  clearance: 4.3 ± 0.26 mL/min/kg
[2]; cynomolgus monkey, plasma, historical parent, IV 1 mg/kg, read-out: MRT (hr), IV
  MRT: 2.4 ± 0.15 h
[2]; cynomolgus monkey, plasma, historical parent, IV 1 mg/kg, read-out: Vdss (L/kg), IV
  Vd: 0.63 ± 0.39 L/kg
[2]; cynomolgus monkey, plasma, historical parent, IV 1 mg/kg, read-out: t1/2 (hr), IV (converted)
  half-life: 4.7 ± 0.31 h
[2]; cynomolgus monkey, plasma, historical parent, PO 5 mg/kg, read-out: AUCtot (μM · hr), PO
  AUC: 27 ± 2.9 µM·h
[2]; cynomolgus monkey, plasma, historical parent, PO 5 mg/kg, read-out: Bioavailability (%)
  bioavailability: 60%
[2]; cynomolgus monkey, plasma, historical parent, PO 5 mg/kg, read-out: C-24 hr (μM), PO
  concentration at 24 hr: 0.074 ± 0.032 µM
[2]; cynomolgus monkey, plasma, historical parent, PO 5 mg/kg, read-out: Cmax (μM), PO
  Cmax: 5.8 ± 1.2 µM
[2]; cynomolgus monkey, plasma, historical parent, PO 5 mg/kg
  Tmax: 2.7 h
[2]; cynomolgus monkey, plasma, historical parent, PO 5 mg/kg, read-out: t1/2 (hr), PO (converted)
  half-life: 4.2 ± 0.64 h
[2]; male, cynomolgus monkey, plasma, after IV prodrug (~1.1 mg/kg parent equivalent), analyte = label, read-out: AUCtot (μM · hr), IV
  AUC: 7.1 ± 1 µM·h
[2]; male, cynomolgus monkey, plasma, after IV prodrug, analyte = label, read-out: t1/2 (hr), IV (converted)
  half-life: 4.8 ± 1.9 h
[2]; male, cynomolgus monkey, plasma, oral prodrug, read-out: Bioavailability (%) of parent from prodrug
  bioavailability: 66%
[2]; male, cynomolgus monkey, plasma, parent after oral prodrug (~4-6 mg/kg parent equivalent)
  Tmax: 0.83 h
[2]; male, cynomolgus monkey, plasma, parent after oral prodrug, read-out: t1/2 (hr), PO (converted)
  half-life: 4.8 ± 1.3 h
[2]
  IV AUC Ratio of parent (formed from prodrug vs historical parent study): 0.70
[2]; [4]
  PO AUC Ratio of parent: 1.1
